Assay results reported in PubChem BioAssay AID248 (DTP/NCI, 2004).
“And” between values parts separate entries of the source, which are not always exact repeats. Equal values may be shown once. Inconclusive results and toxic doses are left out. Rule as the data show it: active = T/C of 150% or more; inactive = T/C below 125%.

Test system: L1210 leukemia ip in BDF1 mice, survival T/C
Test: NCI In Vivo Anticancer Drug Screen. Data for tumor model L1210 Leukemia (intraperitoneal) in B6D2F1 (BDF1) mice
Conditions: higher = longer survival
Outline: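 Tumor cells were implanted, animals were treated, and survival was followed. The result divides the treated measurement by the vehicle-control measurement.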

[1] = endpoint: mean survival time, dose: 100.0 mg/kg/injection, schedule: Q01DX009 (ip), vehicle: saline
[2] = endpoint: mean survival time, dose: 200.0 mg/kg/injection, schedule: Q01DX009 (ip), vehicle: saline
[3] = endpoint: mean survival time, dose: 400.0 mg/kg/injection, schedule: Q01DX009 (ip), vehicle: saline
[4] = endpoint: mean survival time, dose: 100.0 mg/kg/injection, schedule: Q04DX003 (ip), vehicle: Klucel (hydroxypropylcellulose) (HPC)
[5] = endpoint: mean survival time, dose: 200.0 mg/kg/injection, schedule: Q04DX003 (ip), vehicle: Klucel (hydroxypropylcellulose) (HPC)
[6] = endpoint: mean survival time, dose: 400.0 mg/kg/injection, schedule: Q04DX003 (ip), vehicle: Klucel (hydroxypropylcellulose) (HPC)

Measured: T/C

O=S1(=O)CC(S(=O)(=O)O)C(S(=O)(=O)O)C1 (stereo unspecified)
inactive: endpoint: mean survival time, dose: 50.0 mg/kg/injection, schedule: Q01DX009 (ip), vehicle: saline 110 % of control | [1] 103 % of control | [2] 99 % of control | [3] 93 % of control

Nc1ccncn1
inactive: endpoint: mean survival time, dose: 100.0 mg/kg/injection, schedule: Q01DX005 (ip), vehicle: saline 94 % of control | [1] 99 % of control | endpoint: mean survival time, dose: 100.0 mg/kg/injection, schedule: Q04DX002 (ip), vehicle: saline 96 % of control | endpoint: mean survival time, dose: 200.0 mg/kg/injection, schedule: Q01DX005 (ip), vehicle: saline 97 % of control | [2] 96 % of control | endpoint: mean survival time, dose: 200.0 mg/kg/injection, schedule: Q04DX002 (ip), vehicle: saline 96 % of control | endpoint: mean survival time, dose: 400.0 mg/kg/injection, schedule: Q01DX005 (ip), vehicle: saline 105 % of control | [3] 96 % of control | endpoint: mean survival time, dose: 400.0 mg/kg/injection, schedule: Q04DX002 (ip), vehicle: saline 100 % of control

O=CC(O)CO (stereo unspecified)
inactive: endpoint: mean survival time, dose: 62.5 mg/kg/injection, schedule: Q01DX009 (ip), vehicle: carboxymethylcellulose (CMC) 102 % of control | endpoint: mean survival time, dose: 108.0 mg/kg/injection, schedule: Q01DX Z (ip), vehicle: other 95 % of control | endpoint: mean survival time, dose: 125.0 mg/kg/injection, schedule: Q01DX001 (ip), vehicle: carboxymethylcellulose (CMC) 98 % of control | endpoint: mean survival time, dose: 125.0 mg/kg/injection, schedule: Q01DX009 (ip), vehicle: carboxymethylcellulose (CMC) 116 % of control | endpoint: mean survival time, dose: 180.0 mg/kg/injection, schedule: Q01DX Z (ip), vehicle: other 112 % of control | endpoint: mean survival time, dose: 250.0 mg/kg/injection, schedule: Q01DX001 (ip), vehicle: carboxymethylcellulose (CMC) 105 % of control | endpoint: mean survival time, dose: 250.0 mg/kg/injection, schedule: Q01DX009 (ip), vehicle: carboxymethylcellulose (CMC) 116 % of control | endpoint: mean survival time, dose: 300.0 mg/kg/injection, schedule: Q01DX Z (ip), vehicle: other 113 % of control | endpoint: mean survival time, dose: 500.0 mg/kg/injection, schedule: Q01DX001 (ip), vehicle: carboxymethylcellulose (CMC) 100 % of control | endpoint: mean survival time, dose: 500.0 mg/kg/injection, schedule: Q01DX009 (ip), vehicle: carboxymethylcellulose (CMC) 118 % of control | endpoint: mean survival time, dose: 500.0 mg/kg/injection, schedule: Q01DX Z (ip), vehicle: other 115 % of control | endpoint: mean survival time, dose: 833.0 mg/kg/injection, schedule: Q01DX Z (ip), vehicle: other 114 % of control | endpoint: mean survival time, dose: 1000.0 mg/kg/injection, schedule: Q01DX001 (ip), vehicle: carboxymethylcellulose (CMC) 110 % of control | endpoint: median survival time, dose: 352.0 mg/kg/injection, schedule: Q01DX005 (ip), vehicle: saline sonified 122 % of control | endpoint: median survival time, dose: 440.0 mg/kg/injection, schedule: Q01DX005 (ip), vehicle: other 118 % of control | endpoint: median survival time, dose: 440.0 mg/kg/injection, schedule: Q01DX005 (ip), vehicle: saline sonified 116 % of control | endpoint: median survival time, dose: 550.0 mg/kg/injection, schedule: Q01DX005 (ip), vehicle: saline sonified 122 % of control | endpoint: median survival time, dose: 688.0 mg/kg/injection, schedule: Q01DX005 (ip), vehicle: other 107 % of control | endpoint: median survival time, dose: 688.0 mg/kg/injection, schedule: Q01DX005 (ip), vehicle: saline sonified 111 % of control | endpoint: median survival time, dose: 860.0 mg/kg/injection, schedule: Q01DX005 (ip), vehicle: other 51 % of control | endpoint: median survival time, dose: 1053.0 mg/kg/injection, schedule: Q01DX001 (ip), vehicle: other 119 % of control | endpoint: median survival time, dose: 1053.0 mg/kg/injection, schedule: Q01DX001 (ip), vehicle: saline sonified 122 % of control | endpoint: median survival time, dose: 1170.0 mg/kg/injection, schedule: Q01DX001 (ip), vehicle: other 117 % of control | endpoint: median survival time, dose: 1170.0 mg/kg/injection, schedule: Q01DX001 (ip), vehicle: saline sonified 122 % of control | endpoint: median survival time, dose: 1300.0 mg/kg/injection, schedule: Q01DX001 (ip), vehicle: other 117 % of control | endpoint: median survival time, dose: 1300.0 mg/kg/injection, schedule: Q01DX001 (ip), vehicle: saline sonified 122 % of control | endpoint: median survival time, dose: 1444.0 mg/kg/injection, schedule: Q01DX001 (ip), vehicle: other 121 % of control | endpoint: median survival time, dose: 1444.0 mg/kg/injection, schedule: Q01DX001 (ip), vehicle: saline sonified 122 % of control | endpoint: median survival time, dose: 1604.0 mg/kg/injection, schedule: Q01DX001 (ip), vehicle: other 51 % of control | endpoint: median survival time, dose: 1782.0 mg/kg/injection, schedule: Q01DX001 (ip), vehicle: other 75 % of control

NC(N)=N/N=C/c1ccccc1S(=O)(=O)O
inactive: endpoint: mean survival time, dose: 15.0 mg/kg/injection, schedule: Q01DX Z (ip), vehicle: saline 92 % of control | endpoint: mean survival time, dose: 30.0 mg/kg/injection, schedule: Q01DX Z (ip), vehicle: saline 95 % of control | endpoint: mean survival time, dose: 60.0 mg/kg/injection, schedule: Q01DX Z (ip), vehicle: saline 94 % of control | endpoint: mean survival time, dose: 60.0 mg/kg/injection, schedule: Q01DX Z (oral), vehicle: other 98 % of control | endpoint: mean survival time, dose: 120.0 mg/kg/injection, schedule: Q01DX Z (ip), vehicle: saline 86 % of control | endpoint: mean survival time, dose: 120.0 mg/kg/injection, schedule: Q01DX Z (oral), vehicle: other 101 % of control | endpoint: mean survival time, dose: 240.0 mg/kg/injection, schedule: Q01DX Z (oral), vehicle: other 97 % of control | endpoint: mean survival time, dose: 480.0 mg/kg/injection, schedule: Q01DX Z (oral), vehicle: other 98 % of control

N#CC(C#N)=Cc1c(Cl)cccc1Cl
inactive: endpoint: mean survival time, dose: 6.25 mg/kg/injection, schedule: Q01DX001 (ip), vehicle: Klucel (hydroxypropylcellulose) (HPC) 96 % of control | endpoint: mean survival time, dose: 6.25 mg/kg/injection, schedule: Q04DX003 (ip), vehicle: Klucel (hydroxypropylcellulose) (HPC) 94 % of control | endpoint: mean survival time, dose: 12.5 mg/kg/injection, schedule: Q01DX001 (ip), vehicle: Klucel (hydroxypropylcellulose) (HPC) 103 % of control | endpoint: mean survival time, dose: 12.5 mg/kg/injection, schedule: Q04DX003 (ip), vehicle: Klucel (hydroxypropylcellulose) (HPC) 114 % of control | endpoint: mean survival time, dose: 25.0 mg/kg/injection, schedule: Q01DX001 (ip), vehicle: Klucel (hydroxypropylcellulose) (HPC) 96 % of control and 109 % of control | endpoint: mean survival time, dose: 25.0 mg/kg/injection, schedule: Q04DX003 (ip), vehicle: Klucel (hydroxypropylcellulose) (HPC) 97 % of control | endpoint: mean survival time, dose: 100.0 mg/kg/injection, schedule: Q01DX001 (ip), vehicle: Klucel (hydroxypropylcellulose) (HPC) 105 % of control

C=C(Cl)COC1CCS(=O)(=O)C1 (stereo unspecified)
inactive: endpoint: mean survival time, dose: 6.25 mg/kg/injection, schedule: Q01DX009 (ip), vehicle: saline with Tween-80 94 % of control and 101 % of control | endpoint: mean survival time, dose: 12.5 mg/kg/injection, schedule: Q01DX009 (ip), vehicle: saline with Tween-80 95 % of control and 97 % of control | endpoint: mean survival time, dose: 25.0 mg/kg/injection, schedule: Q01DX009 (ip), vehicle: saline with Tween-80 100 % of control and 122 % of control | endpoint: mean survival time, dose: 50.0 mg/kg/injection, schedule: Q01DX009 (ip), vehicle: saline with Tween-80 97 % of control

CC(=O)C1=CN(C(C)(C)C)COC1C (stereo unspecified)
inactive: endpoint: mean survival time, dose: 50.0 mg/kg/injection, schedule: Q01DX009 (ip), vehicle: Klucel (hydroxypropylcellulose) (HPC) 104 % of control | endpoint: mean survival time, dose: 100.0 mg/kg/injection, schedule: Q01DX009 (ip), vehicle: Klucel (hydroxypropylcellulose) (HPC) 95 % of control | endpoint: mean survival time, dose: 200.0 mg/kg/injection, schedule: Q01DX009 (ip), vehicle: Klucel (hydroxypropylcellulose) (HPC) 110 % of control

CC(C)(C(=O)O)c1ccccc1C(=O)c1ccccc1
inactive: [4] 97 % of control | [5] 101 % of control | [6] 105 % of control

C/C=C(/C(=O)O)c1ccccc1
inactive: [4] 109 % of control | [5] 88 % of control | [6] 94 % of control
